For one test, the target named is T1, Mad1 597–718 (Homo sapiens, UniProt Q9Y6D9).
T1 construct: His (N); Strep (N); made in house; host or cells: E. coli BL21(DE3)
T1 sequence (Q9Y6D9 597-718): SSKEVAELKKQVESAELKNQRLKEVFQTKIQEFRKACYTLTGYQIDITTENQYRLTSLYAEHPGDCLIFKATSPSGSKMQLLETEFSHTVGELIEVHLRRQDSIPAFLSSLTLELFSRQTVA
Briefly: SPR, binding of CD1 peptides to Mad1 597–718 (steady-state affinity). The settings on record: ratio of Kd, SPR, Mad1 597–718. An excerpt:
(§1) To further investigate a possible direct interaction between Mad1 and CD1, we used surface plasmon resonance technology. […] To achieve a more efficient synthesis of CD1 peptides and in particularly of the phosphorylated peptides we used norleucine (Nle) instead of methionine (Met) but we cannot exclude that Mad1 will have a different affinity for peptides containing methionine. […] Given that Ser459 and Thr461 phosphorylation was critical for Bub1 functionality in vivo we tested if they affected Mad1 597–718 binding. […] As the Mad1 RLK motif is required for binding Bub1 in budding yeast in vivo[39], we tested whether this motif was required for direct binding to CD1 phosphorylated on Thr461. […] We furthermore analysed the binding of Mad1 597–718 to CD1 peptides harboring the Ile471Asp and […] (residues 474–476) mutations with Thr461 being phosphorylated.
Figure 4 Direct binding of Mad1 to CD1 peptide. (a) SPR steady-state responses for control, WT, pS459, pT461, pS459/pT461, I471D, MFQ/RKK and control Bub1 CD1 peptides to purified Mad1 597–718 protein. The biotinylated peptides were captured on a streptavidin-coated CM5 chip and increasing concentrations of Mad1 were subsequently added for binding assessment. Empty symbols represent experimental data points from two technical replicates using the same chip. An additional independent experiment with two replicates has been performed giving in all cases consistent results. The equilibrium dissociation constants, KD, were calculated using a steady-state affinity model and the lines represent the best fit to the model. […] (b) Similar to a, SPR steady-state responses for pT461 peptide with purified Mad1 597–718 or Mad1 597–718 RLK/AAA or the Mad1 485–718/Mad2 complex. (c) Sequence and summary of the affinity of CD1 peptides for Mad1 597–718 as determined by SPR.
Bub1 peptides were purchased from Biosyntan Gmbh (Germany). The purity obtained in the synthesis was 95–98% as determined by high-performance liquid chromatography (HPLC) and the identity of the peptides was confirmed by mass spectrometry. SPR experiments were performed on a Biacore T200 (GE Healthcare) at 25 °C. Streptavidin (ThermoFisher Scientific) at 0.05 mg ml^−1 in 10 mM sodium acetate, pH 4.5, was directly immobilized on a CM5 sensor chip (GE Healthcare) by standard amine coupling chemistry with N-hydroxysuccinimide and N-ethly-N′-(3-dimethlyaminopropyl)carbodiimide up to an immobilization level of approximately 2000 RU. Unreacted sites were quenched with ethanolamine HCl. Subsequently, N-terminal biotinylated Bub1 peptides (at 10 nM in HBS-EP+ buffer and flow rate 5 μl min^−1) were captured at ∼50 RU, respectively, in channels 2, 3 and 4 of the streptavidin coated chip, leaving channel 1 free for reference. An identical approach was used to prepare a second CM5 chip with the negative controls. In this case, a N-terminal biotinylated 5A mutant, a non-related phosphorylated peptide and the Bub1 pT461 peptide were captured, respectively, in channels 2, 3 and 4. HBS-EP+ (10 mM Hepes, pH 7.4, 150 mM NaCl, 3 mM EDTA, 0.05% (v/v) Surfactant P20) was used as running buffer for both streptavidin immobilization and peptide capture. […] Sensorgrams were analysed after double referencing. […]

The target of the next test is T2, Mad1 597–718 RLK/AAA (Homo sapiens, UniProt Q9Y6D9, K619A/L618A/R617A).
T2 construct: His; Strep; made in house; host or cells: E. coli BL21(DE3) (stated for the wild-type construct)
T2 sequence (Q9Y6D9 597-718 R617A/L618A/K619A limits assumed): T1 sequence (Q9Y6D9 597-718) with R21A, L22A, K23A
As to the kind of experiment: SPR, binding of CD1 peptide to Mad1 597–718 RLK/AAA. Particulars: Mad1 597–718 RLK/AAA injected up to 250 μM, 25 °C.
From the text: as §1
Figure 4 Direct binding of Mad1 to CD1 peptide. […] The equilibrium dissociation constants, KD, were calculated using a steady-state affinity model and the lines represent the best fit to the model. […] (c) Sequence and summary of the affinity of CD1 peptides for Mad1 597–718 as determined by SPR.
Bub1 peptides were purchased from Biosyntan Gmbh (Germany). The purity obtained in the synthesis was 95–98% as determined by high-performance liquid chromatography (HPLC) and the identity of the peptides was confirmed by mass spectrometry. […]
In general terms: Surface plasmon resonance follows binding to a sensor surface in real time, without labels.

Numbering of substitutions follows the chain as printed. Square brackets hold non-standard residues; d marks the D form. Peptide text beside a SMILES is read from it. * marks the point of attachment. Biotin = O=C1N[C@H]2[C@H](CS[C@H]2CCCCC(=O)*)N1; pT = C[C@@H](OP(=O)(O)O)[C@H](N)C(=O)O; Nle = CCCC[C@H](N)C(=O)O

As to `CCCC[C@H](NC(=O)[C@H](CC(N)=O)NC(=O)[C@H](CCCC)NC(=O)[C@@H](NC(=O)[C@H](Cc1ccccc1)NC(=O)CNC(=O)[C@H](CC(C)C)NC(=O)[C@H](C)NC(=O)[C@H](CCC(=O)O)NC(=O)[C@H](CCCCN)NC(=O)[C@@H](NC(=O)[C@H](Cc1c[nH]cn1)NC(=O)[C@@H](NC(=O)[C@@H](NC(=O)[C@@H]1CCCN1C(=O)[C@H](CO)NC(=O)[C@@H]1CCCN1C(=O)[C@H](CCC(N)=O)NC(=O)[C@@H](NC(=O)[C@H](CCCCN)NC(=O)[C@H](CO)NC(=O)[C@@H]1CCCN1C(=O)[C@@H](NC(=O)[C@H](C)NC(=O)[C@H](CCC(N)=O)NC(=O)[C@@H](NC(=O)CCCC[C@@H]1SC[C@@H]2NC(=O)N[C@@H]21)C(C)C)[C@@H](C)O)C(C)C)[C@@H](C)OP(=O)(O)O)C(C)C)[C@@H](C)O)[C@@H](C)CC)C(=O)N[C@@H](Cc1ccccc1)C(=O)N[C@@H](CCC(N)=O)C(=O)N[C@@H](C)C(=O)N1CCC[C@H]1C(=O)N[C@H](C(=O)N[C@@H](CC(C)C)C(=O)N[C@@H](Cc1c[nH]c2ccccc12)C(=O)O)[C@@H](C)O` [CD1 pT461] (Biotin-VQATPSKVQPSP[pT]VHTKEALGFI[Nle]N[Nle]FQAPTLW-OH; C-terminus assumed), the “stronger binding to Mad1 than unphosphorylated CD1 peptide” value on Mad1 597–718 was found to be 10 fold. Further, the binding entry on Mad1 597–718 RLK/AAA is reported as “no binding”.

Source of the values: publication PMC5472792, “Bub1 positions Mad1 close to KNL1 MELT repeats to promote checkpoint signalling” (Nature Communications, 2017).
